Activity calls are given as the source filed them. The calls are words filed in the database; no cut-off is given here.
What was measured:
PC-3 = test: Antiproliferative activity against human PC3 cells assessed as decrease in cell viability measured after 72 hrs by MTT assay; type: functional, cell-based; conditions: PC-3, 72 h
HeLa [1] = test: Antiproliferative activity against human HeLa cells assessed as decrease in cell viability measured after 72 hrs by MTT assay; type: functional, cell-based
Jurkat = test: Antiproliferative activity against human Jurkat T cells assessed as decrease in cell viability measured after 24 to 72 hrs by MTT assay; type: functional, cell-based
MCF7 = test: Antiproliferative activity against human MCF7 cells assessed as decrease in cell viability measured after 72 hrs by MTT assay; type: functional, cell-based; conditions: MCF7, 72 h
IEC-6 [2] = test: Cytotoxicity against rat IEC-6 cells assessed as reduction in cell viability measured after 24 to 72 hrs by MTT assay; type: cell-based; conditions: for Activity: rat, iec-6
HeLa [3] = test: Induction of apoptosis in human HeLa cells assessed as increase in hypodiploid nuclei at 0.3 to 0.6 uM measured after 24 hrs by propidium iodide staining-based FACS analysis; type: functional, cell-based
IEC-6 [4] = test: Induction of apoptosis in rat IEC-6 cells assessed as increase in hypodiploid nuclei at 0.1 to 0.6 uM measured after 24 hrs by propidium iodide staining-based FACS analysis; type: cell-based; conditions: iec-6, 24 h
HeLa [5] = test: Inhibition of ERK phosphorylation in human HeLa cells at 0.6 uM after 24 hrs by FACS analysis; type: cell-based
HeLa [6] = test: Induction of apoptosis in human HeLa cells assessed as increase in caspase 3 level at 0.1 to 0.6 uM after 24 hrs by FACS analysis; type: functional, cell-based
IEC-6 [7] = test: Induction of apoptosis in rat IEC-6 cells assessed as increase in caspase 3 level at 0.1 to 0.6 uM after 24 hrs by FACS analysis; type: cell-based; conditions: iec-6, 24 h
[8] = Inhibition of ERK phosphorylation in rat IEC-6 cells at 0.6 uM after 24 hrs by FACS analysis; type: cell-based; conditions: iec-6, 24 h
IEC-6 [9] = test: Induction of ROS generation in rat IEC-6 cells at 0.1 to 0.6 uM measured after 24 hrs by H2DCF-DA staining-based FACS analysis; type: cell-based; conditions: iec-6, 24 h
HeLa [10] = test: Cell cycle arrest in human HeLa cells assessed as accumulation at G0/G1-phase at 0.1 to 0.6 uM after 24 hrs by propidium iodide staining-based FACS analysis; type: functional
HeLa [11] = test: Induction of apoptosis in human HeLa cells assessed as effect on PARP level at 0.1 to 0.6 uM after 24 hrs by FACS analysis; type: functional, cell-based
HeLa [12] = test: Down regulation of ERK expression in human HeLa cells at 0.1 to 0.6 uM after 24 hrs by FACS analysis; type: functional, cell-based
IEC-6 [13] = test: Induction of apoptosis in rat IEC-6 cells assessed as effect on PARP level at 0.1 to 0.6 uM after 24 hrs by FACS analysis; type: cell-based; conditions: iec-6, 24 h
IEC-6 [14] = test: Down regulation of ERK expression in rat IEC-6 cells at 0.6 uM after 24 hrs by FACS analysis; type: ADME, cell-based; conditions: iec-6, 24 h
HeLa [15] = test: Induction of ROS generation in human HeLa cells at 0.1 to 0.6 uM measured after 24 hrs by H2DC-DA probe-based FACS analysis; type: functional, cell-based
IEC-6 [16] = test: Cell cycle arrest in rat IEC-6 cells assessed as decrease in accumulation at G2-phase at 0.1 to 0.6 uM after 24 hrs by propidium iodide staining-based FACS analysis; type: ADME; conditions: iec-6, 24 h
HeLa [17] = test: Cell cycle arrest in human HeLa cells assessed as decrease in accumulation at G2-phase at 0.1 to 0.6 uM after 24 hrs by propidium iodide staining-based FACS analysis; type: functional
IEC-6 [18] = test: Cell cycle arrest in rat IEC-6 cells assessed as accumulation at G0/G1-phase at 0.1 to 0.6 uM after 24 hrs by propidium iodide staining-based FACS analysis; type: ADME; conditions: iec-6, 24 h
IEC-6 [19] = test: Cell cycle arrest in rat IEC-6 cells assessed as increase in accumulation at S phase at 0.1 to 0.6 uM after 24 hrs by propidium iodide staining based FACS analysis; type: ADME; conditions: iec-6, 24 h
IEC-6 [20] = test: Cytotoxicity against rat IEC-6 cells assessed as reduction in cell viability at 0.1 to 0.6 uM measured after 24 to 72 hrs by MTT assay; type: cell-based; conditions: iec-6, 0.6 µM

IC50 (PC-3) [µM]	IC50 (HeLa [1]) [µM]	IC50 (Jurkat) [µM]	IC50 (MCF7) [µM]	Compound	other results
2.08	14.7	72	76.4	Cn1cc(CNCCc2ccc(-c3ccccc3)cc2)c2cc(CNc3ccc(F)cc3)ccc21	
52.2	73.2	60.4	3.04	CN(CCc1ccc(-c2ccccc2)cc1)Cc1cn(C)c2ccc(C(=O)N3CCCCC3)cc12	Activity (IEC-6 [2]): Non-Toxic
89.2	24.8	> 100	24.7	CN1CCN(Cc2cn(C)c3ccc(C(=O)Nc4ccc(F)cc4)cc23)CC1	
> 100	> 100	> 100	12.8	CC(=O)N(CCc1ccc(-c2ccccc2)cc1)Cc1cn(C)c2ccc(C(=O)Nc3ccc(C)cc3)cc12	
9.41	0.95	3.68	4.55	CN(Cc1cccc2ccccc12)Cc1cn(C)c2ccc(CNc3ccc(F)cc3)cc12	IC50 (IEC-6 [2]; Rattus norvegicus, IEC-6): 0.59 µM
5.41	7.23	6.21	1.26	CCCn1cc(CNCCc2ccc(-c3ccccc3)cc2)c2cc(CNc3ccc(F)cc3)ccc21	Activity (IEC-6 [2]): Toxic
> 100	23.6	> 100	54.4	CN(Cc1ccc(-c2ccccc2)cc1)Cc1cn(C)c2ccc(C(=O)Nc3ccc(F)cc3)cc12	
84.3	8.18	34.4	20.2	CN(Cc1ccc(-c2ccccc2)cc1)Cc1cn(C)c2ccc(CNc3ccc(F)cc3)cc12	
87.5	> 100	79.2	12.2	CCNC(=O)c1ccc2c(c1)c(CN(C)CCc1ccc(-c3ccccc3)cc1)cn2C	
72.7	2.92	26.5	2.15	CN(CCc1ccc(-c2ccccc2)cc1)Cc1cn(C)c2ccc(CNc3ccc(F)cc3)cc12	
1.07	1.44	2.35	14	COc1cccc2c1C(=O)c1c(O)c3c(c(O)c1C2=O)C[C@@](O)(C(=O)CO)C[C@@H]3O[C@H]1C[C@H](N)[C@H](O)[C@H](C)O1 [DOXORUBICIN]	
50.3	69.8	68	3.04	Cc1ccc(NC(=O)c2ccc3c(c2)c(CN(C)CCc2ccc(-c4ccccc4)cc2)cn3C)cc1	Activity (IEC-6 [2]): Non-Toxic
> 100	> 100	> 100	82.6	CC(=O)N(CCc1ccc(-c2ccccc2)cc1)Cc1cn(C)c2ccc(C(=O)Nc3ccc(F)cc3)cc12	
47.7	19.6	> 100	14.7	CN(CCc1ccccc1)Cc1cn(C)c2ccc(C(=O)Nc3ccc(F)cc3)cc12	
6.45	4.21	42.1	13.2	COc1cc(CN(C)Cc2cn(C)c3ccc(C(=O)Nc4ccc(F)cc4)cc23)cc(OC)c1OC	
8.36	67.6	> 100	10.8	O=C(Nc1ccc(F)cc1)c1ccc2c(ccn2Cc2ccc(-c3ccccc3)cc2)c1	
56	9.98	35.6	37	CN(Cc1ccc(Oc2ccccc2)cc1)Cc1cn(C)c2ccc(CNc3ccc(F)cc3)cc12	
				N#Cc1c(Oc2ccc(F)c(NC(=O)Cc3cccc(C(F)(F)F)c3)c2)ccc2nc(NC(=O)C3CC3)sc12	Activity (HeLa [3]): Active; Activity (IEC-6 [4]): Toxic; inhibition (HeLa [5]): Active; Activity (HeLa [6]): Active; Activity (IEC-6 [7]): Toxic; inhibition (INH) [8]: Active; Activity (IEC-6 [9]): Toxic; Activity (HeLa [10]): Active; Activity (HeLa [11]): inactive; Activity (HeLa [12]): Active; Activity (IEC-6 [13]): Non-Toxic; Activity (IEC-6 [14]): Toxic; Activity (HeLa [15]): Active; Activity (IEC-6 [16]): Toxic; Activity (HeLa [17]): Active; Activity (IEC-6 [18]): Toxic; Activity (IEC-6 [19]): Toxic; Activity (IEC-6 [20]): Toxic
45.3	24.3	83.8	7.07	Cn1cc(CNCCc2ccc(-c3ccccc3)cc2)c2cc(C(=O)Nc3ccc(F)cc3)ccc21	
37.5	39.7	> 100	63.9	Cn1cc(CN2CCN(Cc3ccc(-c4ccccc4)cc3)CC2)c2cc(C(=O)Nc3ccc(F)cc3)ccc21	
30.8	16.6	51.8	20.7	CN(CCc1ccc(Oc2ccccc2)cc1)Cc1cn(C)c2ccc(C(=O)Nc3ccc(F)cc3)cc12	

From ChEMBL document CHEMBL4340507, “Identification of an indol-based multi-target kinase inhibitor through phenotype screening and target fishing using inverse virtual screening approach” (Eur J Med Chem, 2019)
